According to patent US12084445B2, “Broad-spectrum carbapenems” (VenatoRx Pharmaceuticals, Inc., priority 2018, dated 2024):
Read-outs that look alike come from different tables or passages of the source.

Tests used:
Assay type in all cases: cell-based
[1] = test system: S. aureus ATCC 29213 (methicillin sensitive); test: broth microdilution MIC assay, S. aureus ATCC 29213; settings: Staphylococcus aureus, ATCC 29213 / MSSA
Protocol: (§1) To determine the ability of test compounds to potentiate the inhibition of the growth of bacterial strains, classic cell-based broth microdilution MIC assays were employed. MIC assays are performed according to CLSI methods except where otherwise noted (CLSI, 2011 and CLSI, 2009). The reference strains S. aureus ATCC 29213 (methicillin sensitive), S. aureus ATCC 33591 (methicillin-resistant), E. coli ATCC 25922 (wild-type/QC strain), P. aeruginosa ATCC 27853 (wild-type/QC strain), and the clinical isolate P. aeruginosa PA 8 were used to determine the ability of the exemplary carbapenem compounds to inhibit bacterial growth. An expanded panel of methicillin resistance S. aureus (MRSA) and Pseudomonas was also used to determine the ability of exemplary carbapenem compounds to inhibit bacterial growth across a broader representation of those species. To determine activity in MRSA and in addition to S. aureus ATCC 33591, S. aureus USA 300, USA 400 and USA 600, some of the most common clones found to cause human infection, were also used. To further gauge the impact on the carbapenem compounds due to various resistance mechanisms in Pseudomonas, the following strains were included: P. aeruginosa 35151 (hyper-permeable strain), P. aeruginosa AmexAB-OprM (an efflux pump knockout), and P. aeruginosa PA 3 (a clinical isolate of reduced carbapenem susceptibility). Briefly, cryo-preserved bacterial cultures of clinical strains are streaked for isolation on appropriate agar medium, in this case Mueller Hinton II agar. Following incubation to allow formation of colonies, these plates are sealed with parafilm and stored refrigerated for up to two weeks. For preparation of assay inocula and to ensure low variability, at least 5 colonies are picked from the agar plates with an inoculating loop and aseptically transferred to a culture tube containing 3 mL of Mueller-Hinton Broth (supplemented with divalent cations to required levels based on Manufacturers' specification). The broth culture is grown for 3-5 hours at 37° C. with shaking at 200 rpm. Meanwhile, 2-fold serial dilutions of test compounds are conducted in a 96 well plate with a final volume of 75 μL per well at 2-fold the final desired concentration. After the dilution plates are set up the growing cultures are then diluted in a cuvette containing MH II broth and the optical density is measured at 600 nm. Inocula are diluted such that 75 μL of this culture in Mueller-Hinton Broth results in a starting bacterial concentration of 5×10^5 CFU/mL when added to the dilution plates. The plates are incubated 16-20 hours at 37° C. The MIC is read visually as the lowest concentration well with no bacterial growth.
(§2) Representative results are shown in Tables 3, 4, and 5 where A represents an MIC>32 μg/mL, B represents an MIC between 8 and 32 μg/mL inclusive, C represents an MIC between 1 and 4 μg/mL inclusive, and D represents an MIC of <1 μg/mL. NT=Not Tested.

[2] = test system: S. aureus ATCC 33591 (methicillin-resistant); test: broth microdilution MIC assay, S. aureus ATCC 33591; settings: Staphylococcus aureus, ATCC 33591 / MRSA
In short: (§3)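 Following CLSI guidance, bacteria were exposed to twofold compound dilution series at a starting density of 5×10^5 CFU/mL in cation-adjusted Mueller-Hinton broth. After overnight incubation (16-20 h, 37 °C), the lowest well lacking growth was taken as the MIC.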

[3] = test system: E. coli ATCC 25922 (wild-type/QC strain); test: broth microdilution MIC assay, E. coli ATCC 25922; settings: Escherichia coli
In short: as §3

[4] = test system: P. aeruginosa ATCC 27853 (wild-type/QC strain); test: broth microdilution MIC assay, P. aeruginosa ATCC 27853; settings: Pseudomonas aeruginosa
In short: as §3

[5] = test system: clinical isolate P. aeruginosa PA 8; test: broth microdilution MIC assay, P. aeruginosa PA 8; settings: Pseudomonas aeruginosa; Table 3; P. aeruginosa PA8
Protocol: as §1, §2

[6] = Table 3, S. aureus 29213 (MSSA), read-out: S. aureus 29213 (MSSA) MIC
[7] = Table 3, S. aureus 33591 (MRSA), read-out: S. aureus 33591 (MRSA) MIC
[8] = ATCC25922, Table 3, E. coli 25922, read-out: E. coli 25922 MIC
[9] = ATCC27853, Table 3, P. aeruginosa 27853, read-out: P. aeruginosa 27853 MIC

Row | SMILES | MIC [1, 6] [µg/mL] | MIC [2, 7] [µg/mL] | MIC [3, 8] [µg/mL] | MIC [4, 9] [µg/mL] | MIC [5] [µg/mL] | MIC ([1]; read-out: S. aureus 29213 (MSSA) MIC (μg/mL)) [µg/mL] | MIC ([2]; read-out: S. aureus 33591 (MRSA) MIC (μg/mL)) [µg/mL] | MIC ([3]; ATCC25922, read-out: E. coli 25922 MIC (μg/mL)) [µg/mL] | MIC ([4]; ATCC27853, read-out: P. aeruginosa 27853 MIC (μg/mL)) [µg/mL]
1 | C[C@@H](O)[C@H]1C(=O)N2C(C(=O)O)=C(S[C@H]3CCN(C4CCNCC4)C3)[C@H](C)[C@H]12 [Example 2, (4R,5S,6S)-6-((R)-1-hydroxyethyl)-4-methyl-7-oxo-3-(((S)-1-(piperidin-4-yl)pyrrolidin-3-yl)thio)-1-azabicyclo[3.2.0]hept-2-ene-2-carboxylic acid] | < 1 | 8 to 32 | < 1 | 1 to 4 | > 32 |  |  |  | 
2 | C[C@@H](O)[C@H]1C(=O)N2C(C(=O)O)=C(S[C@@H]3CCN(C4CCCNC4)C3)[C@H](C)[C@H]12 (stereo partly drawn) [Example 4, (4R,5S,6S)-6-((R)-1-hydroxyethyl)-4-methyl-7-oxo-3-(((3R)-1-(piperidin-3-yl)pyrrolidin-3-yl)thio)-1-azabicyclo[3.2.0]hept-2-ene-2-carboxylic acid] | < 1 | 8 to 32 | < 1 | 1 to 4 | 8 to 32 |  |  |  | 
3 | C[C@@H](O)[C@H]1C(=O)N2C(C(=O)O)=C(S[C@@H]3CCN(C4CCNC4)C3)[C@H](C)[C@H]12 (stereo partly drawn) [Example 6, (4R,5S,6S)-3-(((3R)-[1,3′-bipyrrolidin]-3-yl)thio)-6-((R)-1-hydroxyethyl)-4-methyl-7-oxo-1-azabicyclo[3.2.0]hept-2-ene-2-carboxylic acid] | < 1 | 8 to 32 | < 1 | 1 to 4 | 1 to 4 |  |  |  | 
4 | C[C@@H](O)[C@H]1C(=O)N2C(C(=O)O)=C(S[C@@H]3CCN(CC4CCNCC4)C3)[C@H](C)[C@H]12 [Example 7, (4R,5S,6S)-6-((R)-1-hydroxyethyl)-4-methyl-7-oxo-3-(((R)-1-(piperidin-4-ylmethyl)pyrrolidin-3-yl)thio)-1-azabicyclo[3.2.0]hept-2-ene-2-carboxylic acid] | < 1 | 1 to 4 | < 1 | 1 to 4 | 1 to 4 |  |  |  | 
5 | C[C@@H](O)[C@H]1C(=O)N2C(C(=O)O)=C(S[C@@H]3CCN(C[C@H]4CCCN4)C3)[C@H](C)[C@H]12 [Example 8, (4R,5S,6S)-6-((R)-1-hydroxyethyl)-4-methyl-7-oxo-3-(((R)-1-(((R)-pyrrolidin-2-yl)methyl)pyrrolidin-3-yl)thio)-1-azabicyclo[3.2.0]hept-2-ene-2-carboxylic acid] | < 1 | 1 to 4 | < 1 | 8 to 32 | 8 to 32 |  |  |  | 
6 | C[C@@H](O)[C@H]1C(=O)N2C(C(=O)O)=C(S[C@@H]3CCN(Cc4ccncc4)C3)[C@H](C)[C@H]12 [Example 9, (4R,5S,6S)-6-((R)-1-hydroxyethyl)-4-methyl-7-oxo-3-(((R)-1-(pyridin-4-ylmethyl)pyrrolidin-3-yl)thio)-1-azabicyclo[3.2.0]hept-2-ene-2-carboxylic acid] | < 1 | 8 to 32 | < 1 | 8 to 32 | 8 to 32 |  |  |  | 
7 | C[C@@H](O)[C@H]1C(=O)N2C(C(=O)O)=C(S[C@@H]3CCN(Cc4cccnc4)C3)[C@H](C)[C@H]12 [Example 10, (4R,5S,6S)-6-((R)-1-hydroxyethyl)-4-methyl-7-oxo-3-(((R)-1-(pyridin-3-ylmethyl)pyrrolidin-3-yl)thio)-1-azabicyclo[3.2.0]hept-2-ene-2-carboxylic acid] | < 1 | 8 to 32 | < 1 | 8 to 32 |  |  |  |  | 
8 | C[C@@H](O)[C@H]1C(=O)N2C(C(=O)O)=C(S[C@@H]3CCN(CCC4CCNCC4)C3)[C@H](C)[C@H]12 [Example 11, (4R,5S,6S)-6-((R)-1-hydroxyethyl)-4-methyl-7-oxo-3-(((R)-1-(2-(piperidin-4-yl)ethyl)pyrrolidin-3-yl)thio)-1-azabicyclo[3.2.0]hept-2-ene-2-carboxylic acid] | < 1 | 1 to 4 | < 1 | 1 to 4 | 1 to 4 |  |  |  | 
9 | C[C@@H](O)[C@H]1C(=O)N2C(C(=O)O)=C(S[C@@H]3CCN(CC4CCCNC4)C3)[C@H](C)[C@H]12 (stereo partly drawn) [Example 12, (4R,5S,6S)-6-((R)-1-hydroxyethyl)-4-methyl-7-oxo-3-(((3R)-1-(piperidin-3-ylmethyl)pyrrolidin-3-yl)thio)-1-azabicyclo[3.2.0]hept-2-ene-2-carboxylic acid] | < 1 | 8 to 32 | < 1 | 8 to 32 |  |  |  |  | 
10 | C[C@@H](O)[C@H]1C(=O)N2C(C(=O)O)=C(S[C@@H]3CCN(CC4CCCCN4)C3)[C@H](C)[C@H]12 (stereo partly drawn) [Example 13, (4R,5S,6S)-6-((R)-1-hydroxyethyl)-4-methyl-7-oxo-3-(((3R)-1-(piperidin-2-ylmethyl)pyrrolidin-3-yl)thio)-1-azabicyclo[3.2.0]hept-2-ene-2-carboxylic acid] | < 1 | 8 to 32 | < 1 | 8 to 32 |  |  |  |  | 
11 | C[C@@H](O)[C@H]1C(=O)N2C(C(=O)O)=C(S[C@@H]3CCN(C[C@@H]4CCCN4)C3)[C@H](C)[C@H]12 [Example 14, (4R,5S,6S)-6-((R)-1-hydroxyethyl)-4-methyl-7-oxo-3-(((R)-1-(((S)-pyrrolidin-2-yl)methyl)pyrrolidin-3-yl)thio)-1-azabicyclo[3.2.0]hept-2-ene-2-carboxylic acid] | < 1 | 8 to 32 | < 1 | 8 to 32 |  |  |  |  | 
12 | C[C@@H](O)[C@H]1C(=O)N2C(C(=O)O)=C(S[C@@H]3CCN(CC4(C)CCNCC4)C3)[C@H](C)[C@H]12 [Example 15, (4R,5S,6S)-6-((R)-1-hydroxyethyl)-4-methyl-3-(((R)-1-((4-methylpiperidin-4-yl)methyl)pyrrolidin-3-yl)thio)-7-oxo-1-azabicyclo[3.2.0]hept-2-ene-2-carboxylic acid] | < 1 | 8 to 32 | < 1 | 8 to 32 |  |  |  |  | 
13 | C[C@@H](O)[C@H]1C(=O)N2C(C(=O)O)=C(S[C@@H]3CCN(CC4(F)CCNCC4)C3)[C@H](C)[C@H]12 [Example 16, (4R,5S,6S)-3-(((R)-1-((4-fluoropiperidin-4-yl)methyl)pyrrolidin-3-yl)thio)-6-((R)-1-hydroxyethyl)-4-methyl-7-oxo-1-azabicyclo[3.2.0]hept-2-ene-2-carboxylic acid] |  |  |  |  |  | < 1 | 8 to 32 | < 1 | 8 to 32
14 | CNCc1ccc(CN2CC[C@@H](SC3=C(C(=O)O)N4C(=O)[C@H]([C@@H](C)O)[C@H]4[C@H]3C)C2)cc1 [Example 19, (4R,5S,6S)-6-((R)-1-hydroxyethyl)-4-methyl-3-(((R)-1-(4-((methylamino)methyl)benzyl)pyrrolidin-3-yl)thio)-7-oxo-1-azabicyclo[3.2.0]hept-2-ene-2-carboxylic acid] | 1 to 4 | 8 to 32 | < 1 | 1 to 4 | 1 to 4 |  |  |  | 
